{"source": "paper PMC7065129", "about": "“Phospholipase D‐derived phosphatidic acid promotes root hair development under phosphorus deficiency by suppressing vacuolar degradation of PIN‐FORMED2” (The New Phytologist, 2019)", "biological_target": "T1, SNX1 (SORTING NEXIN1; AtSNX1) (Arabidopsis thaliana, UniProt Q9FG38)", "T1 construct": "full-length cDNA in pET51b, His-tagged (tag kept), E. coli Rosetta (DE3), Ni-NTA purified", "T1 sequence (Q9FG38 1-402)": "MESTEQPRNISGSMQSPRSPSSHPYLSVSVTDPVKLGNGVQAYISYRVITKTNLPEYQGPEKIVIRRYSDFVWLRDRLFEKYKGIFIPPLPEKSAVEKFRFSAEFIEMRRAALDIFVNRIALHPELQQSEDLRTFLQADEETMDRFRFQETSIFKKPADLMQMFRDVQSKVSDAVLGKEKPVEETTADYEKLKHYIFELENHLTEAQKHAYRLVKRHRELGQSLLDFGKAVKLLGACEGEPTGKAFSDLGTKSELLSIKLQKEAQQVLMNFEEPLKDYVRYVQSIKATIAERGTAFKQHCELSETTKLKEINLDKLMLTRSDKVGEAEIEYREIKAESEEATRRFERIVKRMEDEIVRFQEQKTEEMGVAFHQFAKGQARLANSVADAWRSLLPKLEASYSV", "test": "liposome co-sedimentation, immunoblot", "type": "binding", "settings": "dioleoyl PC/dioleoyl PA liposomes, pH 7.5, 25 °C; PA (acyl chains not told) also tested by lipid-protein overlay", "data": [{"smiles": "CCCCCCCC/C=C\\CCCCCCCC(=O)OC[C@H](COP(=O)(O)O)OC(=O)CCCCCCC/C=C\\CCCCCCCC", "note": "[dioleoyl PA]", "values": [{"measurement": "liposome co-sedimentation, immunoblot", "result": "results confirmed the specific SNX1‐PA binding (Fig. 4b)"}]}]}
